Test results reported in patent publication US8686044B2, “Amide derivative, pest control agent containing the amide derivative, and use of the amide derivative” (Mitsui Chemicals Agro, Inc., priority 2008, dated 2014).

Legend:
Type in all cases: in vivo
Spodoptera litura = experiment: Pesticidal test against Spodoptera litura (cabbage leaf dip); conditions: foliar, 144 h, concentration 1 ppm, 2-stage larvae, examined after 6 days, 25° C., read-out: pesticidal rate
Summary of the method: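 Cabbage leaf pieces dipped 30 seconds in compound solution at a predetermined concentration and air-dried, then offered to second-stage larvae, five per group in two replicates. Held at 25° C. Living and dead larvae counted after 6 days.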

Musca domestica = experiment: Pesticidal test against Musca domestica (petri dish dry film); conditions: 24 h, concentration 100 ppm, female adults, examined after 1 day, 25° C., read-out: pesticidal rate
Summary of the method: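 Female adult houseflies were confined at 25° C in capped 9 cm petri dishes coated with an air-dried film from 1 ml acetone solution of compound (predetermined concentration). Mortality was scored 1 day later, two replicates of five per group.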

Blattella germanica = experiment: Pesticidal test against Blattella germanica (petri dish dry film); conditions: 24 h, concentration 100 ppm, female adults, examined after 1 day, 25° C., read-out: pesticidal rate
Protocol: Pesticidal Test against Blattella germanica
1 ml of an acetone solution in which a test compound had been prepared at a predetermined concentration was added dropwise to a petri dish having a diameter of 9 cm, and air-dried, and then the female adults of Blattella germanica were released and the petri dish was capped. They were left to stand in a thermostatic chamber at 25° C., and the numbers of the living pests and the dead pests were examined after 1 day. The test was carried out with five larvae per group in two replicates.

Plutella xylostella = experiment: Pesticidal test against Plutella xylostella (cabbage leaf dip); conditions: foliar, 144 h, concentration 1 ppm, 2-stage larvae, examined after 6 days, 25° C., read-out: pesticidal rate
Summary of the method: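 Second-stage larvae (5 per group, two replicates) were released onto air-dried cabbage leaf discs that had been immersed for 30 seconds in compound solution at a set concentration. Mortality was scored after 6 days at 25° C.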

Laodelphax striatellus = experiment: Pesticidal test against Laodelphax striatellus (rice seedling spray); conditions: 144 h, concentration 100 ppm, 3-stage larvae, examined after 6 days, 25° C., read-out: pesticidal rate
Summary of the method: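 Rice seedlings sprayed with 2.5 ml acetone solution of compound at a predetermined concentration, air-dried, then infested with third-stage Laodelphax striatellus larvae in capped water-containing tubes at 25 °C. Living and dead insects counted after 6 days; ten larvae per group, two replicates.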

N#Cc1ccc(C(=O)Nc2c(Br)cc(C(F)(C(F)(F)F)C(F)(F)F)cc2C(F)(F)F)c(F)c1NC(=O)c1ccccc1 [1-1925]
≥ 70%: pest or weed control at 1 ppm (Spodoptera litura) | pest or weed control at 100 ppm (Musca domestica) | pest or weed control at 100 ppm (Blattella germanica) | pest or weed control at 1 ppm (Plutella xylostella)

O=C(Nc1c(Br)cc(C(F)(C(F)(F)F)C(F)(F)C(F)(F)F)cc1Br)c1cccc(NC(=O)c2ccccc2F)c1 (stereo not drawn) [6-39]
≥ 70%: pest or weed control at 1 ppm (Spodoptera litura) | pest or weed control at 100 ppm (Musca domestica) | pest or weed control at 100 ppm (Blattella germanica) | pest or weed control at 1 ppm (Plutella xylostella) | pest or weed control at 100 ppm (Laodelphax striatellus)

O=C(Nc1c(Br)cc(C(F)(C(F)(F)F)C(F)(F)C(F)(F)F)cc1Br)c1cccc(NC(=O)c2c(F)cccc2F)c1 (stereo not drawn) [6-47]
≥ 70%: pest or weed control at 1 ppm (Spodoptera litura) | pest or weed control at 100 ppm (Musca domestica) | pest or weed control at 100 ppm (Blattella germanica) | pest or weed control at 1 ppm (Plutella xylostella) | pest or weed control at 100 ppm (Laodelphax striatellus)

O=C(Nc1cccc(C(=O)Nc2c(Br)cc(C(F)(C(F)(F)F)C(F)(F)C(F)(F)F)cc2C(F)(F)F)c1)c1ccccc1 (stereo not drawn) [6-346]
≥ 70%: pest or weed control at 1 ppm (Spodoptera litura) | pest or weed control at 100 ppm (Musca domestica) | pest or weed control at 100 ppm (Blattella germanica) | pest or weed control at 1 ppm (Plutella xylostella) | pest or weed control at 100 ppm (Laodelphax striatellus)

O=C(Nc1c(Br)cc(C(F)(C(F)(F)F)C(F)(F)C(F)(F)F)cc1C(F)(F)F)c1cccc(NC(=O)c2c(F)cccc2F)c1 (stereo not drawn) [6-368]
≥ 70%: pest or weed control at 1 ppm (Spodoptera litura) | pest or weed control at 100 ppm (Musca domestica) | pest or weed control at 100 ppm (Blattella germanica) | pest or weed control at 1 ppm (Plutella xylostella) | pest or weed control at 100 ppm (Laodelphax striatellus)

O=C(Nc1cccc(C(=O)Nc2c(Br)cc(C(F)(C(F)(F)F)C(F)(F)F)cc2Br)c1F)c1ccccc1F [6-1105]
≥ 70%: pest or weed control at 1 ppm (Spodoptera litura) | pest or weed control at 100 ppm (Musca domestica) | pest or weed control at 100 ppm (Blattella germanica) | pest or weed control at 1 ppm (Plutella xylostella)

O=C(Nc1cccc(C(=O)Nc2c(Br)cc(C(F)(C(F)(F)F)C(F)(F)F)cc2Br)c1F)c1ccc(F)cc1 [6-1107]
≥ 70%: pest or weed control at 1 ppm (Spodoptera litura) | pest or weed control at 100 ppm (Musca domestica) | pest or weed control at 100 ppm (Blattella germanica) | pest or weed control at 1 ppm (Plutella xylostella) | pest or weed control at 100 ppm (Laodelphax striatellus)

N#Cc1cccc(C(=O)Nc2cccc(C(=O)Nc3c(Br)cc(C(F)(C(F)(F)F)C(F)(F)F)cc3Br)c2F)c1 [6-1124]
≥ 70%: pest or weed control at 1 ppm (Spodoptera litura) | pest or weed control at 100 ppm (Musca domestica) | pest or weed control at 100 ppm (Blattella germanica) | pest or weed control at 1 ppm (Plutella xylostella) | pest or weed control at 100 ppm (Laodelphax striatellus)

N#Cc1ccc(C(=O)Nc2cccc(C(=O)Nc3c(Br)cc(C(F)(C(F)(F)F)C(F)(F)F)cc3Br)c2F)cc1 [6-1125]
≥ 70%: pest or weed control at 1 ppm (Spodoptera litura) | pest or weed control at 100 ppm (Musca domestica) | pest or weed control at 100 ppm (Blattella germanica) | pest or weed control at 1 ppm (Plutella xylostella)

O=C(Nc1c(Br)cc(C(F)(C(F)(F)F)C(F)(F)F)cc1Br)c1cccc(NC(=O)c2c(F)cccc2F)c1F [6-1126]
≥ 70%: pest or weed control at 1 ppm (Spodoptera litura) | pest or weed control at 100 ppm (Musca domestica) | pest or weed control at 100 ppm (Blattella germanica) | pest or weed control at 1 ppm (Plutella xylostella) | pest or weed control at 100 ppm (Laodelphax striatellus)

O=C(Nc1cccc(C(=O)Nc2c(Br)cc(C(F)(C(F)(F)F)C(F)(F)F)cc2Br)c1F)c1ccc(Cl)nc1 [6-1147]
≥ 70%: pest or weed control at 1 ppm (Spodoptera litura) | pest or weed control at 100 ppm (Musca domestica) | pest or weed control at 100 ppm (Blattella germanica) | pest or weed control at 1 ppm (Plutella xylostella) | pest or weed control at 100 ppm (Laodelphax striatellus)

O=C(Nc1cccc(C(=O)Nc2c(Br)cc(C(F)(C(F)(F)F)C(F)(F)C(F)(F)F)cc2Br)c1F)c1cccc(F)c1 (stereo not drawn) [6-1184]
≥ 70%: pest or weed control at 1 ppm (Spodoptera litura) | pest or weed control at 100 ppm (Musca domestica) | pest or weed control at 100 ppm (Blattella germanica) | pest or weed control at 1 ppm (Plutella xylostella) | pest or weed control at 100 ppm (Laodelphax striatellus)

O=C(Nc1c(Br)cc(C(F)(C(F)(F)F)C(F)(F)C(F)(F)F)cc1Br)c1cccc(NC(=O)c2c(F)cccc2F)c1F (stereo not drawn) [6-1204]
≥ 70%: pest or weed control at 1 ppm (Spodoptera litura) | pest or weed control at 100 ppm (Musca domestica) | pest or weed control at 100 ppm (Blattella germanica) | pest or weed control at 1 ppm (Plutella xylostella) | pest or weed control at 100 ppm (Laodelphax striatellus)

N#Cc1cccc(C(=O)Nc2cccc(C(=O)Nc3c(I)cc(C(F)(C(F)(F)F)C(F)(F)F)cc3I)c2F)c1 [6-1280]
≥ 70%: pest or weed control at 1 ppm (Spodoptera litura) | pest or weed control at 100 ppm (Blattella germanica) | pest or weed control at 1 ppm (Plutella xylostella) | pest or weed control at 100 ppm (Laodelphax striatellus)

O=C(Nc1cccc(C(=O)Nc2c(I)cc(C(F)(C(F)(F)F)C(F)(F)F)cc2I)c1F)c1cccnc1Cl [6-1296]
≥ 70%: pest or weed control at 1 ppm (Spodoptera litura) | pest or weed control at 100 ppm (Blattella germanica) | pest or weed control at 1 ppm (Plutella xylostella) | pest or weed control at 100 ppm (Laodelphax striatellus)

O=C(Nc1cccc(C(=O)Nc2c(Br)cc(C(F)(C(F)(F)F)C(F)(F)F)cc2C(F)(F)F)c1F)c1cccnc1Cl [6-1610]
≥ 70%: pest or weed control at 1 ppm (Spodoptera litura) | pest or weed control at 100 ppm (Blattella germanica) | pest or weed control at 1 ppm (Plutella xylostella) | pest or weed control at 100 ppm (Laodelphax striatellus)

CN(C(=O)c1cccnc1Br)c1cccc(C(=O)Nc2c(Br)cc(C(F)(C(F)(F)F)C(F)(F)F)cc2C(F)(F)F)c1 [7-305]
≥ 70%: pest or weed control at 1 ppm (Spodoptera litura) | pest or weed control at 100 ppm (Blattella germanica) | pest or weed control at 1 ppm (Plutella xylostella) | pest or weed control at 100 ppm (Laodelphax striatellus)

CN(C(=O)c1ccccc1F)c1cccc(C(=O)Nc2c(Br)cc(C(F)(C(F)(F)F)C(F)(F)C(F)(F)F)cc2C(F)(F)F)c1 (stereo not drawn) [7-347]
≥ 70%: pest or weed control at 1 ppm (Spodoptera litura) | pest or weed control at 100 ppm (Blattella germanica) | pest or weed control at 1 ppm (Plutella xylostella)

CN(C(=O)c1ccc(F)cc1)c1cccc(C(=O)Nc2c(Br)cc(C(F)(C(F)(F)F)C(F)(F)C(F)(F)F)cc2C(F)(F)F)c1 (stereo not drawn) [7-349]
≥ 70%: pest or weed control at 1 ppm (Spodoptera litura) | pest or weed control at 100 ppm (Musca domestica) | pest or weed control at 100 ppm (Blattella germanica) | pest or weed control at 1 ppm (Plutella xylostella)

CN(C(=O)c1ccc(C#N)cc1)c1cccc(C(=O)Nc2c(Br)cc(C(F)(C(F)(F)F)C(F)(F)C(F)(F)F)cc2C(F)(F)F)c1 (stereo not drawn) [7-367]
≥ 70%: pest or weed control at 1 ppm (Spodoptera litura) | pest or weed control at 100 ppm (Musca domestica) | pest or weed control at 100 ppm (Blattella germanica) | pest or weed control at 1 ppm (Plutella xylostella)

CN(C(=O)c1ccccc1F)c1cccc(C(=O)Nc2c(I)cc(C(F)(C(F)(F)F)C(F)(F)F)cc2I)c1F [7-1261]
≥ 70%: pest or weed control at 1 ppm (Spodoptera litura) | pest or weed control at 100 ppm (Blattella germanica) | pest or weed control at 1 ppm (Plutella xylostella) | pest or weed control at 100 ppm (Laodelphax striatellus)
